From the OligoGym collection
Oligonucleotides are given in HELM: sugar(base)linkage, 5' to 3'; d 2'-deoxyribose, r ribose, m 2'-O-methylribose, p phosphate. ss, as = sense and antisense strand

Target: TMEM63B
Experiment: reporter assay of Huesken 2005
Details: siRNA
Further: test concentration or dose not given here.

Substance	normalised inhibition (eCFP-eYFP dual reporter)
RNA1{r(G)p.r(C)p.r(A)p.r(U)p.r(U)p.r(U)p.r(U)p.r(G)p.r(A)p.r(G)p.r(G)p.r(A)p.r(A)p.r(G)p.r(C)p.r(C)p.r(U)p.r(A)p.r(C)p.d(T)p.d(T)}|RNA2{r(G)p.r(U)p.r(A)p.r(G)p.r(G)p.r(C)p.r(U)p.r(U)p.r(C)p.r(C)p.r(U)p.r(C)p.r(A)p.r(A)p.r(A)p.r(A)p.r(U)p.r(G)p.r(C)p.d(T)p.d(T)}$$$RNA1{StrandType:ss}|RNA2{StrandType:as}$	87.3%
RNA1{r(G)p.r(C)p.r(C)p.r(U)p.r(A)p.r(C)p.r(C)p.r(A)p.r(U)p.r(G)p.r(A)p.r(U)p.r(C)p.r(A)p.r(A)p.r(C)p.r(C)p.r(C)p.r(C)p.d(T)p.d(T)}|RNA2{r(G)p.r(G)p.r(G)p.r(G)p.r(U)p.r(U)p.r(G)p.r(A)p.r(U)p.r(C)p.r(A)p.r(U)p.r(G)p.r(G)p.r(U)p.r(A)p.r(G)p.r(G)p.r(C)p.d(A)p.d(C)}$$$RNA1{StrandType:ss}|RNA2{StrandType:as}$	39.6%
RNA1{r(G)p.r(C)p.r(C)p.r(U)p.r(A)p.r(C)p.r(G)p.r(C)p.r(C)p.r(U)p.r(G)p.r(G)p.r(A)p.r(U)p.r(G)p.r(A)p.r(U)p.r(G)p.r(U)p.d(T)p.d(T)}|RNA2{r(A)p.r(C)p.r(A)p.r(U)p.r(C)p.r(A)p.r(U)p.r(C)p.r(C)p.r(A)p.r(G)p.r(G)p.r(C)p.r(G)p.r(U)p.r(A)p.r(G)p.r(G)p.r(C)p.d(T)p.d(G)}$$$RNA1{StrandType:ss}|RNA2{StrandType:as}$	72.3%
RNA1{r(G)p.r(C)p.r(C)p.r(U)p.r(U)p.r(U)p.r(G)p.r(U)p.r(C)p.r(A)p.r(C)p.r(C)p.r(U)p.r(U)p.r(C)p.r(C)p.r(A)p.r(C)p.r(A)p.d(T)p.d(T)}|RNA2{r(U)p.r(G)p.r(U)p.r(G)p.r(G)p.r(A)p.r(A)p.r(G)p.r(G)p.r(U)p.r(G)p.r(A)p.r(C)p.r(A)p.r(A)p.r(A)p.r(G)p.r(G)p.r(C)p.d(C)p.d(A)}$$$RNA1{StrandType:ss}|RNA2{StrandType:as}$	72.5%
RNA1{r(G)p.r(C)p.r(G)p.r(A)p.r(A)p.r(A)p.r(U)p.r(A)p.r(C)p.r(A)p.r(U)p.r(C)p.r(G)p.r(C)p.r(U)p.r(C)p.r(A)p.r(G)p.r(G)p.d(T)p.d(T)}|RNA2{r(C)p.r(C)p.r(U)p.r(G)p.r(A)p.r(G)p.r(C)p.r(G)p.r(A)p.r(U)p.r(G)p.r(U)p.r(A)p.r(U)p.r(U)p.r(U)p.r(C)p.r(G)p.r(C)p.d(A)p.d(G)}$$$RNA1{StrandType:ss}|RNA2{StrandType:as}$	40.2%
RNA1{r(G)p.r(C)p.r(G)p.r(U)p.r(C)p.r(U)p.r(U)p.r(C)p.r(A)p.r(C)p.r(G)p.r(G)p.r(U)p.r(G)p.r(G)p.r(U)p.r(C)p.r(A)p.r(U)p.d(T)p.d(T)}|RNA2{r(A)p.r(U)p.r(G)p.r(A)p.r(C)p.r(C)p.r(A)p.r(C)p.r(C)p.r(G)p.r(U)p.r(G)p.r(A)p.r(A)p.r(G)p.r(A)p.r(C)p.r(G)p.r(C)p.d(A)p.d(C)}$$$RNA1{StrandType:ss}|RNA2{StrandType:as}$	75.9%
RNA1{r(G)p.r(C)p.r(U)p.r(A)p.r(U)p.r(G)p.r(C)p.r(A)p.r(C)p.r(G)p.r(G)p.r(G)p.r(G)p.r(A)p.r(C)p.r(A)p.r(G)p.r(C)p.r(C)p.d(T)p.d(T)}|RNA2{r(G)p.r(G)p.r(C)p.r(U)p.r(G)p.r(U)p.r(C)p.r(C)p.r(C)p.r(C)p.r(G)p.r(U)p.r(G)p.r(C)p.r(A)p.r(U)p.r(A)p.r(G)p.r(C)p.d(T)p.d(G)}$$$RNA1{StrandType:ss}|RNA2{StrandType:as}$	73.2%
RNA1{r(G)p.r(C)p.r(U)p.r(G)p.r(C)p.r(U)p.r(G)p.r(A)p.r(A)p.r(G)p.r(C)p.r(A)p.r(C)p.r(C)p.r(U)p.r(G)p.r(G)p.r(U)p.r(A)p.d(T)p.d(T)}|RNA2{r(U)p.r(A)p.r(C)p.r(C)p.r(A)p.r(G)p.r(G)p.r(U)p.r(G)p.r(C)p.r(U)p.r(U)p.r(C)p.r(A)p.r(G)p.r(C)p.r(A)p.r(G)p.r(C)p.d(A)p.d(T)}$$$RNA1{StrandType:ss}|RNA2{StrandType:as}$	82.4%
RNA1{r(G)p.r(C)p.r(U)p.r(U)p.r(U)p.r(G)p.r(G)p.r(G)p.r(A)p.r(G)p.r(A)p.r(A)p.r(C)p.r(C)p.r(A)p.r(C)p.r(C)p.r(A)p.r(U)p.d(T)p.d(T)}|RNA2{r(A)p.r(U)p.r(G)p.r(G)p.r(U)p.r(G)p.r(G)p.r(U)p.r(U)p.r(C)p.r(U)p.r(C)p.r(C)p.r(C)p.r(A)p.r(A)p.r(A)p.r(G)p.r(C)p.d(T)p.d(G)}$$$RNA1{StrandType:ss}|RNA2{StrandType:as}$	75.8%
RNA1{r(G)p.r(G)p.r(A)p.r(U)p.r(G)p.r(A)p.r(U)p.r(C)p.r(U)p.r(G)p.r(G)p.r(U)p.r(G)p.r(A)p.r(A)p.r(G)p.r(C)p.r(G)p.r(G)p.d(T)p.d(T)}|RNA2{r(C)p.r(C)p.r(G)p.r(C)p.r(U)p.r(U)p.r(C)p.r(A)p.r(C)p.r(C)p.r(A)p.r(G)p.r(A)p.r(U)p.r(C)p.r(A)p.r(U)p.r(C)p.r(C)p.d(T)p.d(C)}$$$RNA1{StrandType:ss}|RNA2{StrandType:as}$	63.9%
RNA1{r(G)p.r(G)p.r(A)p.r(U)p.r(G)p.r(A)p.r(U)p.r(G)p.r(A)p.r(G)p.r(A)p.r(U)p.r(C)p.r(C)p.r(G)p.r(G)p.r(G)p.r(A)p.r(C)p.d(T)p.d(T)}|RNA2{r(G)p.r(U)p.r(C)p.r(C)p.r(C)p.r(G)p.r(G)p.r(A)p.r(U)p.r(C)p.r(U)p.r(C)p.r(A)p.r(U)p.r(C)p.r(A)p.r(U)p.r(C)p.r(C)p.d(T)p.d(T)}$$$RNA1{StrandType:ss}|RNA2{StrandType:as}$	89.3%
RNA1{r(G)p.r(G)p.r(C)p.r(C)p.r(A)p.r(A)p.r(G)p.r(C)p.r(U)p.r(G)p.r(G)p.r(A)p.r(C)p.r(A)p.r(A)p.r(G)p.r(A)p.r(A)p.r(G)p.d(T)p.d(T)}|RNA2{r(C)p.r(U)p.r(U)p.r(C)p.r(U)p.r(U)p.r(G)p.r(U)p.r(C)p.r(C)p.r(A)p.r(G)p.r(C)p.r(U)p.r(U)p.r(G)p.r(G)p.r(C)p.r(C)p.d(G)p.d(G)}$$$RNA1{StrandType:ss}|RNA2{StrandType:as}$	65%
RNA1{r(G)p.r(G)p.r(C)p.r(C)p.r(U)p.r(G)p.r(C)p.r(U)p.r(C)p.r(A)p.r(U)p.r(G)p.r(U)p.r(A)p.r(C)p.r(A)p.r(U)p.r(G)p.r(A)p.d(T)p.d(T)}|RNA2{r(U)p.r(C)p.r(A)p.r(U)p.r(G)p.r(U)p.r(A)p.r(C)p.r(A)p.r(U)p.r(G)p.r(A)p.r(G)p.r(C)p.r(A)p.r(G)p.r(G)p.r(C)p.r(C)p.d(T)p.d(G)}$$$RNA1{StrandType:ss}|RNA2{StrandType:as}$	71.9%
RNA1{r(G)p.r(G)p.r(G)p.r(A)p.r(G)p.r(A)p.r(A)p.r(C)p.r(A)p.r(G)p.r(G)p.r(A)p.r(C)p.r(A)p.r(A)p.r(C)p.r(C)p.r(A)p.r(U)p.d(T)p.d(T)}|RNA2{r(A)p.r(U)p.r(G)p.r(G)p.r(U)p.r(U)p.r(G)p.r(U)p.r(C)p.r(C)p.r(U)p.r(G)p.r(U)p.r(U)p.r(C)p.r(U)p.r(C)p.r(C)p.r(C)p.d(C)p.d(A)}$$$RNA1{StrandType:ss}|RNA2{StrandType:as}$	65.9%
RNA1{r(G)p.r(G)p.r(G)p.r(A)p.r(U)p.r(G)p.r(G)p.r(G)p.r(G)p.r(C)p.r(U)p.r(C)p.r(C)p.r(U)p.r(G)p.r(G)p.r(G)p.r(A)p.r(G)p.d(T)p.d(T)}|RNA2{r(C)p.r(U)p.r(C)p.r(C)p.r(C)p.r(A)p.r(G)p.r(G)p.r(A)p.r(G)p.r(C)p.r(C)p.r(C)p.r(C)p.r(A)p.r(U)p.r(C)p.r(C)p.r(C)p.d(C)p.d(A)}$$$RNA1{StrandType:ss}|RNA2{StrandType:as}$	43.3%
RNA1{r(G)p.r(G)p.r(G)p.r(C)p.r(U)p.r(C)p.r(C)p.r(U)p.r(G)p.r(G)p.r(G)p.r(A)p.r(G)p.r(C)p.r(U)p.r(C)p.r(A)p.r(G)p.r(G)p.d(T)p.d(T)}|RNA2{r(C)p.r(C)p.r(U)p.r(G)p.r(A)p.r(G)p.r(C)p.r(U)p.r(C)p.r(C)p.r(C)p.r(A)p.r(G)p.r(G)p.r(A)p.r(G)p.r(C)p.r(C)p.r(C)p.d(C)p.d(A)}$$$RNA1{StrandType:ss}|RNA2{StrandType:as}$	36.3%
RNA1{r(G)p.r(G)p.r(G)p.r(U)p.r(U)p.r(C)p.r(C)p.r(U)p.r(A)p.r(G)p.r(C)p.r(U)p.r(C)p.r(C)p.r(C)p.r(A)p.r(C)p.r(G)p.r(U)p.d(T)p.d(T)}|RNA2{r(A)p.r(C)p.r(G)p.r(U)p.r(G)p.r(G)p.r(G)p.r(A)p.r(G)p.r(C)p.r(U)p.r(A)p.r(G)p.r(G)p.r(A)p.r(A)p.r(C)p.r(C)p.r(C)p.d(C)p.d(G)}$$$RNA1{StrandType:ss}|RNA2{StrandType:as}$	57.9%
RNA1{r(G)p.r(G)p.r(U)p.r(G)p.r(G)p.r(C)p.r(C)p.r(G)p.r(C)p.r(G)p.r(C)p.r(C)p.r(C)p.r(A)p.r(U)p.r(C)p.r(C)p.r(U)p.r(C)p.d(T)p.d(T)}|RNA2{r(G)p.r(A)p.r(G)p.r(G)p.r(A)p.r(U)p.r(G)p.r(G)p.r(G)p.r(C)p.r(G)p.r(C)p.r(G)p.r(G)p.r(C)p.r(C)p.r(A)p.r(C)p.r(C)p.d(A)p.d(C)}$$$RNA1{StrandType:ss}|RNA2{StrandType:as}$	49.4%
RNA1{r(G)p.r(U)p.r(A)p.r(C)p.r(A)p.r(U)p.r(G)p.r(A)p.r(U)p.r(C)p.r(C)p.r(G)p.r(G)p.r(C)p.r(U)p.r(C)p.r(U)p.r(G)p.r(C)p.d(T)p.d(T)}|RNA2{r(G)p.r(C)p.r(A)p.r(G)p.r(A)p.r(G)p.r(C)p.r(C)p.r(G)p.r(G)p.r(A)p.r(U)p.r(C)p.r(A)p.r(U)p.r(G)p.r(U)p.r(A)p.r(C)p.d(A)p.d(T)}$$$RNA1{StrandType:ss}|RNA2{StrandType:as}$	46.8%
RNA1{r(G)p.r(U)p.r(A)p.r(C)p.r(U)p.r(A)p.r(C)p.r(A)p.r(C)p.r(A)p.r(A)p.r(A)p.r(G)p.r(C)p.r(U)p.r(G)p.r(G)p.r(A)p.r(G)p.d(T)p.d(T)}|RNA2{r(C)p.r(U)p.r(C)p.r(C)p.r(A)p.r(G)p.r(C)p.r(U)p.r(U)p.r(U)p.r(G)p.r(U)p.r(G)p.r(U)p.r(A)p.r(G)p.r(U)p.r(A)p.r(C)p.d(T)p.d(C)}$$$RNA1{StrandType:ss}|RNA2{StrandType:as}$	58.4%
